This experiment relates to ISG reporter activity in THP1-Dual cell. The experiment can be described thus: ISG reporter assay. Format: cell-based. To be noted: Homo sapiens, compounds incubated with cells for 24 hours, QUANTI-Blue, absorbance at 655 nm. Here is the method:
[Worded in the source for another cell line; this cell line is reported under the same test.] THP1-Blue cells (cat. no. thp-isg) were purchased from InvivoGen (Sandiago, USA). Penicillin—streptomycin (cat. no. L0022-100), Fetal Bovine Serum (FBS) (cat. no. S1480-500) and Roswell Park Memorial Institute (RPMI) 1640 media (cat. L0498-500) were purchased from biowest (Nuaille, France). Zeocin (cat. no. ant-zn-OS) and Normocin (cat. no. ant-nr-1) were purchased from InvivoGen (Sandiago, USA). QUANTI-Blue™ (cat. no. rep-qbs) was purchased from InvivoGen. THP1-Blue cells were cultured in RPMI 1640 medium with 10% heat-inactivated FBS, 100 μg/ml Normocin, 100 μg/ml Zeocin and 100 U/ml-100 μg/ml penicillin-streptomycin. The cells were incubated at 37° C. in a humidified atmosphere of 5% CO2.
THP1-Blue cells were seeded at 5×10^4 cells/well (90 μl/well). 10 μl of compounds were added to the cells and incubated for 24 hours. 20 μl of cell culture supernatant was dispensed new 96-well plate (cat. no. 30096) with 180 μl of QUANTI-Blue™ solution and incubated for 15 minutes at 37° C. The absorbance was measured by Varioskan Lux (Thermofisher Scientific, USA) at 655 nm.
On the technique in general: In a reporter assay the amount or activity of a reporter protein is the signal.

Molecules are shown by their SMILES. Where a name gives a salt, the structure may show the parent alone.

As to `CCn1nc(C)cc1C(=O)Nc1nc2cc(C(=O)O)cc(OC)c2n1C/C=C/Cn1c(NC(=O)c2cc(C)nn2CC)nc2cc(C(N)=O)cc(OCC#CC3CCN(C(=O)OC(C)(C)C)CC3)c21` [Example 1, (E)-1-(4-(7-((3-(1-(tert-butoxycarbonyl)piperidin-4-yl)prop-2-yn-1-yl)oxy)-5-carbamoyl-2-(1-ethyl-3-methyl-1H-pyrazole-5-carboxamido)-1H-benzo[d]imidazol-1-yl)but-2-en-1-yl)-2-(1-ethyl-3-methyl-1H-pyrazole-5-carboxamido)-7-methoxy-1H-benzo[d]imidazole-5-carboxylic acid], the EC50 (usually the concentration needed to bring the measured effect to its halfway point) is greater than 500 nM.

On to `CCn1nc(C)cc1C(=O)Nc1nc2cc(C(=O)NOC)cc(OC)c2n1C/C=C/Cn1c(NC(=O)c2cc(C)nn2CC)nc2cc(C(N)=O)cc(OCC#CC3CCN(C(=O)OC(C)(C)C)CC3)c21` [Example 2, tert-butyl (E)-4-(3-((5-carbamoyl-2-(1-ethyl-3-methyl-1H-pyrazole-5-carboxamido)-1-(4-(2-(1-ethyl-3-methyl-1H-pyrazole-5-carboxamido)-7-methoxy-5-(methoxycarbamoyl)-1H-benzo[d]imidazol-1-yl)but-2-en-1-yl)-1H-benzo[d]imidazol-7-yl)oxy)prop-1-yn-1-yl)piperidine-1-carboxylate], for which the EC50 is greater than 500 nM.

Turning to `CCn1nc(C)cc1C(=O)Nc1nc2cc(C(N)=O)cc(OC)c2n1C/C=C/Cn1c(NC(=O)c2cc(C)nn2CC)nc2cc(C(N)=O)cc(OCC#CC3CCN(C(=O)OC(C)(C)C)CC3)c21` [Example 3, tert-butyl (E)-4-(3-((5-carbamoyl-1-(4-(5-carbamoyl-2-(1-ethyl-3-methyl-1H-pyrazole-5-carboxamido)-7-methoxy-1H-benzo[d]imidazol-1-yl)but-2-en-1-yl)-2-(1-ethyl-3-methyl-1H-pyrazole-5-carboxamido)-1H-benzo[d]imidazol-7-yl)oxy)prop-1-yn-1-yl)piperidine-1-carboxylate], the concentration giving a half-maximal response (EC50) is less than 50 nM.

`CCn1nc(C)cc1C(=O)Nc1nc2cc(C(N)=O)cc(OC)c2n1C/C=C/Cn1c(NC(=O)c2cc(C)nn2CC)nc2cc(C(N)=O)cc(OCC#CC3CCNCC3)c21` [Example 4, (E)-1-(4-(5-carbamoyl-2-(1-ethyl-3-methyl-1H-pyrazole-5-carboxamido)-7-((3-(piperidin-4-yl)prop-2-yn-1-yl)oxy)-1H-benzo[d]imidazol-1-yl)but-2-en-1-yl)-2-(1-ethyl-3-methyl-1H-pyrazole-5-carboxamido)-7-methoxy-1H-benzo[d]imidazole-5-carboxamide hydrochloride] had an EC50 of 50 to 500 nM.

Consider `CCn1nc(C)cc1C(=O)Nc1nc2cc(C(N)=O)cc(OC)c2n1C/C=C/Cn1c(NC(=O)c2cc(C)nn2CC)nc2cc(C(N)=O)cc(OCC#CC3CCN(C(=O)OC(C)C)CC3)c21` [Example 5, isopropyl (E)-4-(3-((5-carbamoyl-1-(4-(5-carbamoyl-2-(1-ethyl-3-methyl-1H-pyrazole-5-carboxamido)-7-methoxy-1H-benzo[d]imidazol-1-yl)but-2-en-1-yl)-2-(1-ethyl-3-methyl-1H-pyrazole-5-carboxamido)-1H-benzo[d]imidazol-7-yl)oxy)prop-1-yn-1-yl)piperidine-1-carboxylate], for which the EC50 was less than 50 nM.

Turning to `CCn1nc(C)cc1C(=O)Nc1nc2cc(C(N)=O)cc(OC)c2n1C/C=C/Cn1c(NC(=O)c2cc(C)nn2CC)nc2cc(C(N)=O)cc(OCC#CC3CCN(C(=O)OC4CC4)CC3)c21` [Example 6, cyclopropyl (E)-4-(3-((5-carbamoyl-1-(4-(5-carbamoyl-2-(1-ethyl-3-methyl-1H-pyrazole-5-carboxamido)-7-methoxy-1H-benzo[d]imidazol-1-yl)but-2-en-1-yl)-2-(1-ethyl-3-methyl-1H-pyrazole-5-carboxamido)-1H-benzo[d]imidazol-7-yl)oxy)prop-1-yn-1-yl)piperidine-1-carboxylate], the EC50 was less than 50 nM.

Turning to `CCn1nc(C)cc1C(=O)Nc1nc2cc(C(N)=O)cc(OC)c2n1C/C=C/Cn1c(NC(=O)c2cc(C)nn2CC)nc2cc(C(N)=O)cc(OCC#CC3CCN(C(=O)OC4CCCC4)CC3)c21` [Example 7, cyclopentyl (E)-4-(3-((5-carbamoyl-1-(4-(5-carbamoyl-2-(1-ethyl-3-methyl-1H-pyrazole-5-carboxamido)-7-methoxy-1H-benzo[d]imidazol-1-yl)but-2-en-1-yl)-2-(1-ethyl-3-methyl-1H-pyrazole-5-carboxamido)-1H-benzo[d]imidazol-7-yl)oxy)prop-1-yn-1-yl)piperidine-1-carboxylate], the EC50 is less than 50 nM.

`CCn1nc(C)cc1C(=O)Nc1nc2cc(C(N)=O)cc(OC)c2n1C/C=C/Cn1c(NC(=O)c2cc(C)nn2CC)nc2cc(C(N)=O)cc(OCC#CC3CCN(C(=O)OC4CCN(C(=O)OC(C)(C)C)CC4)CC3)c21` [Example 8, 1-(tert-butoxycarbonyl)piperidin-4-yl (E)-4-(3-((5-carbamoyl-1-(4-(5-carbamoyl-2-(1-ethyl-3-methyl-1H-pyrazole-5-carboxamido)-7-methoxy-1H-benzo[d]imidazol-1-yl)but-2-en-1-yl)-2-(1-ethyl-3-methyl-1H-pyrazole-5-carboxamido)-1H-benzo[d]imidazol-7-yl)oxy)prop-1-yn-1-yl)piperidine-1-carboxylate] returned an EC50 of less than 50 nM.

In turn, `CCn1nc(C)cc1C(=O)Nc1nc2cc(C(N)=O)cc(OC)c2n1C/C=C/Cn1c(NC(=O)c2cc(C)nn2CC)nc2cc(C(N)=O)cc(OCC#CC3CCN(C(=O)OC4CCNCC4)CC3)c21` [Example 9, piperidin-4-yl (E)-4-(3-((5-carbamoyl-1-(4-(5-carbamoyl-2-(1-ethyl-3-methyl-1H-pyrazole-5-carboxamido)-7-methoxy-1H-benzo[d]imidazol-1-yl)but-2-en-1-yl)-2-(1-ethyl-3-methyl-1H-pyrazole-5-carboxamido)-1H-benzo[d]imidazol-7-yl)oxy)prop-1-yn-1-yl)piperidine-1-carboxylate hydrochloride] had an EC50 of 50 to 500 nM.

In turn, `CCn1nc(C)cc1C(=O)Nc1nc2cc(C(N)=O)cc(OC)c2n1C/C=C/Cn1c(NC(=O)c2cc(C)nn2CC)nc2cc(C(N)=O)cc(OCC#CC3CCN(C(=O)OCCO)CC3)c21` [Example 10, 2-hydroxyethyl (E)-4-(3-((5-carbamoyl-1-(4-(5-carbamoyl-2-(1-ethyl-3-methyl-1H-pyrazole-5-carboxamido)-7-methoxy-1H-benzo[d]imidazol-1-yl)but-2-en-1-yl)-2-(1-ethyl-3-methyl-1H-pyrazole-5-carboxamido)-1H-benzo[d]imidazol-7-yl)oxy)prop-1-yn-1-yl)piperidine-1-carboxylate] returned an EC50 of less than 50 nM.

Take `CCn1nc(C)cc1C(=O)Nc1nc2cc(C(N)=O)cc(OC)c2n1C/C=C/Cn1c(NC(=O)c2cc(C)nn2CC)nc2cc(C(N)=O)cc(OCC#CC3CCN(C(=O)C(C)(C)C)CC3)c21` [Example 11, (E)-1-(4-(5-carbamoyl-2-(1-ethyl-3-methyl-1H-pyrazole-5-carboxamido)-7-((3-(1-pivaloylpiperidin-4-yl)prop-2-yn-1-yl)oxy)-1H-benzo[d]imidazol-1-yl)but-2-en-1-yl)-2-(1-ethyl-3-methyl-1H-pyrazole-5-carboxamido)-7-methoxy-1H-benzo[d]imidazole-5-carboxamide]: the EC50 was less than 50 nM.

Source of the values: patent publication US20230219931A1, “FUSED HETEROARYL HYDROXAMATES AS STING AGONISTS” (BiSiChem Co., Ltd., priority 2022, published 2023).
